Target: Multidrug resistance-associated protein 1 (Homo sapiens, UniProt P33527)
Test: TP_TRANSPORTER: efflux in GLC4/sb30 cells
Format: functional, cell-based

Chain of Multidrug resistance-associated protein 1 (P33527 whole entry): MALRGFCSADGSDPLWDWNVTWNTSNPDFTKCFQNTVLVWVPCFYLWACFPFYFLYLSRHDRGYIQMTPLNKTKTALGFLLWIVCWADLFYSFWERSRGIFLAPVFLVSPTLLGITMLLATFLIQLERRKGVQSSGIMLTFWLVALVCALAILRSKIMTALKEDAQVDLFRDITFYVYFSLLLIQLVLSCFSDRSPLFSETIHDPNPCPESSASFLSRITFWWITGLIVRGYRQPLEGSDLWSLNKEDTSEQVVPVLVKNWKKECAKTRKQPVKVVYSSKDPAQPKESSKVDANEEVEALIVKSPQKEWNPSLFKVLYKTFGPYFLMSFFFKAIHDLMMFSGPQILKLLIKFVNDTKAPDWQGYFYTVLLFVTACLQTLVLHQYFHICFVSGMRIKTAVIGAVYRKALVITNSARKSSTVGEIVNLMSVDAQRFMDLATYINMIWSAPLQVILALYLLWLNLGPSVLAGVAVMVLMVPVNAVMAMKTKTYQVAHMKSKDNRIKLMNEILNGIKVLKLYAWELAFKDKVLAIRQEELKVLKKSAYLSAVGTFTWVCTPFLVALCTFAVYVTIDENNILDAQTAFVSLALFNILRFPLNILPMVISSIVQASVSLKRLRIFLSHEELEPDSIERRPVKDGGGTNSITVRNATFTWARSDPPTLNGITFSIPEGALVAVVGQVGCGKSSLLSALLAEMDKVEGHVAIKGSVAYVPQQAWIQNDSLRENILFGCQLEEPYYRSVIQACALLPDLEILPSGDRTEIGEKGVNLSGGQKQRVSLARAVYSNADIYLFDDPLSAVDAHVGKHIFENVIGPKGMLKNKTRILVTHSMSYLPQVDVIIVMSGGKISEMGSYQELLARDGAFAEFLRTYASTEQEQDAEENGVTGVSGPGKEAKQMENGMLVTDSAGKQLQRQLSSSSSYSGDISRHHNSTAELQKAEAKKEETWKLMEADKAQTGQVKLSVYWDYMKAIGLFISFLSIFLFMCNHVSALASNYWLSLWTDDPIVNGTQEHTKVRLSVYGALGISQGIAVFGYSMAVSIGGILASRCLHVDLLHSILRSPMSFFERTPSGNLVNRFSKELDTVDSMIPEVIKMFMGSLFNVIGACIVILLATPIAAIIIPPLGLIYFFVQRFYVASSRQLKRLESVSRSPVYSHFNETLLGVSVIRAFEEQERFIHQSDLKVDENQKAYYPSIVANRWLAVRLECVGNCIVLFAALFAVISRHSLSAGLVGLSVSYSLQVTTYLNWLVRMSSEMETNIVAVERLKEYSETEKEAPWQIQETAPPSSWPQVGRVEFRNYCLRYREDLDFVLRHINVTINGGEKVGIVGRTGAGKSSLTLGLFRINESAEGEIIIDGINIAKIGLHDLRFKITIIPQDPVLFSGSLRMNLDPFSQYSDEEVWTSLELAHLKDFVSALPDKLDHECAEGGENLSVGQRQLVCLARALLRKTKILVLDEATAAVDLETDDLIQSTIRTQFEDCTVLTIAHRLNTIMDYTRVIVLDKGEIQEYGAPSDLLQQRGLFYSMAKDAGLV

O=C(O)c1ccc(C(=O)O)c(-c2c3cc(Cl)c(=O)cc-3oc3cc(O)c(Cl)cc23)c1.O=C(O)c1cccc(C(=O)O)c1-c1c2cc(Cl)c(=O)cc-2oc2cc(O)c(Cl)cc12
Activity: substrate [+]
